Consider six compounds from US20090012069A1, “Novel Antidiabetic Compounds” (priority 2004, published 2009).

Assay [1] relates to Hamster of Syrian golden stain. Description: Serum triglyceride lowering activity in HF-HC diet fed Hamster of Syrian golden stain. The following applies: HF-HC diet hamsters, 3 mg/kg/day oral gavage, non-fasted serum on day 14, 1 hr after dose. The assay is classed as in vivo. The text has this:
ii) Serum triglyceride and total cholesterol lowering activity in Hamster of Syrian golden stain:
Male and Female Hamster of Syrian golden stain were bred in Zydus animal house. All these animals were maintained under 12-hour light and dark cycle at 22±3 degree C. The protocol approved by Institutional Animal Ethics Committee is being used. Animals of 3-12 weeks age (80-150 gm body weight) were taken for study. Near the end of the acclimatization period, animals judged to be suitable for testing will bee weighed. […] Other animals were put on HF-HC (High fat and high cholesterol) diet for 14 days.
Each animal received a single dose of ZY compounds at 0.001 to 50 mg/kg/ as a carbomethoxy cellulose or polyethylene glycol in the evening administered as an oral gavage daily for 15 days. On day 14, after 1 hr of dose administration, non-fasted blood samples were collected in non heparinized capillary from animals for determination of total cholesterol (TC), triglyceride (TG) (Wieland, O. Methods of Enzymatic analysis. Bergermeyer, H., O., Ed., 1963. 211-214; Trinder, P. Ann. Clin. Biochem. 1969. 6: 24-27). Measurement of serum triglyceride and total cholesterol was done using commercial kits (Pointe Scientific.Inc.USA.) And on day 14 night all animals will be kept for fasting for 12-16 hours. On day 15, after 1 hour of dose administration fasted blood samples will be collected from animals for determination of high density lipoprotein (HDL), and low density lipoprotein (LDL) in serum. The animals will then be euthanized by carbon-dioxide asphyxia (and cervical dislocation, if necessary) and heart, kidney and liver will be resected and weighed.
(§1) Percentage reduction in triglycerides/total cholesterol were calculated according to the formula:
Percentage reduction(%)=(TT−TC)/TC*100
TC=Test day control group TT=Test day treated group.

Assay [2] has as its target T1, hPPARγ (Homo sapiens, UniProt P37231).
T1 sequence (P37231 1-505): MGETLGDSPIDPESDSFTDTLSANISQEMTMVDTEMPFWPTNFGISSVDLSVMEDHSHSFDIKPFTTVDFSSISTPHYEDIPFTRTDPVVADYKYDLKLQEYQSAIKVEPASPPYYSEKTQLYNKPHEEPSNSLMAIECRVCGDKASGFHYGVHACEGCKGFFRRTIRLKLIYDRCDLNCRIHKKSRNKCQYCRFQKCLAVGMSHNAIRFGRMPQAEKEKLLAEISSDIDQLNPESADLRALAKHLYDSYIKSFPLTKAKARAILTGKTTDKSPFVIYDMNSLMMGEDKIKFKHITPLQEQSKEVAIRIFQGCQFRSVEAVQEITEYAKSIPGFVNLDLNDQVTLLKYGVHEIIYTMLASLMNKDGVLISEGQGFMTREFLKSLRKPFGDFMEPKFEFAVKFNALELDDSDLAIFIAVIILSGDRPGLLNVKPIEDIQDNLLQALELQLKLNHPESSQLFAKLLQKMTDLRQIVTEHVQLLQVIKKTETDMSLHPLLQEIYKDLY
Put plainly: In vitro hPPAR gamma activity (in-house protocol). It is filed as cell-based. The conditions noted are these: read-out: EC50 (PPAR gamma). Here is the method:
(§2) In vitro hPPAR α & hPPARγ activities were determined as per in-house protocols and the results of representative compounds are provided below as a proof of the efficacies of the novel class of compounds disclosed above.

Assay [3] deals with T2, hPPAR α (Homo sapiens, UniProt Q07869).
T2 sequence (Q07869 1-468): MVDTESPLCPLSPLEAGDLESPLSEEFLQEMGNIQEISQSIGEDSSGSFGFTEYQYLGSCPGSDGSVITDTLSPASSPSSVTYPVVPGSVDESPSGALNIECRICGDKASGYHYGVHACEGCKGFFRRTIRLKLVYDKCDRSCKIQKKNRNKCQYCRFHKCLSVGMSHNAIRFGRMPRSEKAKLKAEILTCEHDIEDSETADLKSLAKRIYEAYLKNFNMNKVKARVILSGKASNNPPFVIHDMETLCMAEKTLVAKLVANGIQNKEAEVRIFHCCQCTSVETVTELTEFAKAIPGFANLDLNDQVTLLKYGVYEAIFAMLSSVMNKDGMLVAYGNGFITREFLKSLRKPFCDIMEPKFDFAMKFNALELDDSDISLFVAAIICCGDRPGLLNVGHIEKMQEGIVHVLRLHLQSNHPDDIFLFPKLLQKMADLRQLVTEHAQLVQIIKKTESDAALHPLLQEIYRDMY
Description: In vitro hPPAR alpha activity (in-house protocol). It is filed as cell-based. The conditions noted are these: read-out: EC50 (PPAR alpha). The procedure: as §2

Assay [4] deals with Swiss albino mice. Put plainly: Serum triglyceride lowering activity in Swiss albino mice. The assay is classed as in vivo. The conditions noted are these: male Swiss albino mice, 10 mg/kg/day orally for 6 days, serum 1 hour after dose on 6th day, fed state. Here is the method: i) Serum Triglyceride and Total Cholesterol Lowering Activity in Swiss Albino Mice:
Male Swiss albino mice (SAM) were bred in Zydus animal house. All these animals were maintained under 12 hour light and dark cycle at 25±1° C. Animals were given standard laboratory chow (NIN, Hyderabad, India) and water ad libitum. SAM of 20-30 g body weight range was used. The protocol approved by Institutional Animal Ethics Committee is being used.
The test compounds were administered orally to Swiss albino mice at 0.001 to 50 mg/kg/day dose for 6 days. The compound was administered after suspending it in 0.25% CMC or dissolving it in water, when compound is water-soluble. Control mice were treated with vehicle (0.25% of Carboxymethyl cellulose; dose 10 ml/kg).
The blood samples were collected on 0th day and in fed state 1 hour after drug administration on 6th day of the treatment. The blood was collected in non heparinised capillary and the serum was analyzed for triglyceride and total cholesterol (Wieland, O. Methods of Enzymatic analysis. Bergermeyer, H., O., Ed., 1963. 211-214; Trinder, P. Ann. Clin. Biochem. 1969. 6: 24-27). Measurement of serum triglyceride and total cholesterol was done using commercial kits (Zydus-Cadila, Pathline, Ahmedabad, India).
as §1
[formula] • OC=Zero day control group value OT=Zero day treated group value • TC=Test day control group TT=Test day treated group

The structures appear in SMILES notation. pEC50: −log10 of the molar value.

Take `Cc1oc(-c2ccccc2)nc1CCOc1ccc(CC2COC(C)(C(=O)O)OC2)cc1` (stereo not drawn) [Example 61, 2-Methyl-5-{4-[2-(5-methyl-2-phenyl-oxazol-4-yl)-ethoxy]-benzyl}-[1,3]dioxane-2-carboxylic acid]: the “% Triglyceride lowering” value in assay [1] is reported as 30%; in assay [4], 23%. The pEC50 in assay [2] is 7.02; in assay [3], 5.96.
Take `Cc1ccc(-c2nc(CCOc3ccc(C4COC(C)(C(=O)O)OC4)cc3)c(C)o2)cc1` (stereo not drawn) [Example 100, 2-Methyl-5-trans-{4-[2-(5-methyl-2-p-tolyl-oxazol-4-yl)-ethoxy]-phenyl}-[1,3]dioxane-2-carboxylic acid]: in assay [4], the “% Triglyceride lowering” value was found to be 44%.
Turning to `CC1(C(=O)O)OCC(Cc2ccc(OCCn3ccc4ccccc43)cc2)CO1` (stereo not drawn) [Example 70, 5-cis-[4-(2-Indol-1-yl-ethoxy)-benzyl]-2-methyl-[1,3]dioxane-1-carboxylic acid], the results for the pEC50 in assay [2] and in assay [3] were 7.70 and 6.22, respectively.
For `Cn1c(COc2ccc(CC3COC(C)(C(=O)O)OC3)cc2)nc2ccccc2c1=O` (stereo not drawn) [Example 66, 2-Methyl-5-[4-(3-methyl-4-oxo-3,4-dihydro-quinazolin-2-ylmethoxy)-benzyl]-[1,3]dioxane-2-carboxylic acid], the values for the pEC50 in assay [2] and in assay [3] were 7.82 and 7.14, respectively. Besides, the “% Triglyceride lowering” value in assay [4] is given as 40%.
With `CC1(C(=O)O)OCC(c2ccc(OCCOc3ccc(Oc4ccccc4)cc3)cc2)CO1` (stereo not drawn) [Example 106, 2-Methyl-5-cis-{4-[2-(4-phenoxy-phenoxy)-ethoxy]-phenyl}-[1,3]dioxane-2-carboxylic acid], the “% Triglyceride lowering” value in assay [1] worked out at 50%.
On the same count and under the same terms, under `CC1(C(=O)O)OCC(c2ccc(OCCc3ccc(OS(C)(=O)=O)cc3)cc2)CO1` (stereo not drawn) [Example 96, 5-cis-{4-[2-(4-Methanesulfonyloxy-phenyl)-ethoxy]-phenyl}-2-methyl-[1,3]dioxane-2-carboxylic acid] stands 41%.
